# Measured values as given in PubChem BioAssay (NCI).
# Values joined by “and” are separate entries in the source; they are usually repeats but may differ in a detail not shown here. Equal values may be shown once.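 Growth conditions: 96-well plates. Treatment: test compound, 48 hours, 5 concentrations. Analysis: linear interpolation between bracketing concentrations; unreached endpoints set to highest concentration. Abbreviation: GI50, concentration required for 50% inhibition of growth. TGI is the concentration that stops growth completely.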
# Assays:
# Assay in all cases: NCI anticancer screen, dose series, 48 h
# SK-MEL-2 melanoma = tested on: SK-MEL-2 melanoma
# A549 NSCLC = tested on: A549 NSCLC
# CAKI-1 renal = tested on: CAKI-1 renal
# SN12C renal = tested on: SN12C renal
# HCC-2998 colon = tested on: HCC-2998 colon
# UACC-257 melanoma = tested on: UACC-257 melanoma
# HT29 colon = tested on: HT29 colon
# OVCAR-3 ovarian = tested on: OVCAR-3 ovarian
# SK-OV-3 ovarian = tested on: SK-OV-3 ovarian
# NCI-H460 lung = tested on: NCI-H460 lung
Structure (SMILES),TGI (SK-MEL-2 melanoma) [µM],TGI (A549 NSCLC) [µM],TGI (CAKI-1 renal) [µM],TGI (SN12C renal) [µM],TGI (HCC-2998 colon) [µM],TGI (UACC-257 melanoma) [µM],TGI (HT29 colon),TGI (OVCAR-3 ovarian) [µM],TGI (SK-OV-3 ovarian),TGI (NCI-H460 lung),GI50 (SK-MEL-2 melanoma) [µM],GI50 (A549 NSCLC) [µM],GI50 (CAKI-1 renal) [nM],GI50 (SN12C renal) [nM],GI50 (HCC-2998 colon) [µM],GI50 (UACC-257 melanoma) [µM],GI50 (HT29 colon),GI50 (OVCAR-3 ovarian) [nM],GI50 (SK-OV-3 ovarian),GI50 (NCI-H460 lung)
CCOC(CN(C)C(=S)Nc1cccc2ccccc12)OCC,> 10,> 10,> 10,> 10,> 10,> 10,> 10 µM,> 10,> 10 µM,> 10 µM,,,,,,,,,,
CC/C=C/C/C=C/C/C=C/C/C=C/C/C=C/C/C=C/CCC(=O)Nc1ccn([C@@H]2O[C@H](CO)[C@@H](O)C2(F)F)c(=O)n1,> 66.8,20.4,14.8,8.78,> 64.4,46.4,19.5 µM,25.5,> 52.2 µM,12.1 µM,35.9,0.0369,34.1,126,14.9,5.05,0.138 µM,4790,0.14 µM,0.0199 µM
CCCCCCCCCCCCOC1C(C(CC(=O)NCCN2CCCC2)NS(=O)(=O)c2cc(Cl)cc(Cl)c2)OC2OC(C)(C)OC21 (stereo not given),4.95,6.41,3.4,3.23,4.56,4.84,3.45 µM and 2.85 µM,3.72,3.79 µM and 2.73 µM,3.68 µM and 3.73 µM,2.63,2.5,1790,1760,2.14,2.04,1.76 µM and 1.31 µM,1870,2.08 µM and 1.32 µM,1.86 µM and 1.89 µM
C[C@H]1CCC/C=C/[C@@H]2C[C@H](O)C[C@H]2[C@H](O)[C@@H](SCC(O)CO)CC(=O)O1 (stereo not given in full),66.9,> 100,67.6,> 100,42.2,> 100,40.8 µM,63.3,> 100 µM,> 100 µM,25.2,34.4,31700,34300,14.3,6.74,10.2 µM,22300,34.7 µM,26.3 µM
O=C(Nc1ccc(Cl)c(Cl)c1)Nc1ccccc1O,17,22.5,20.4,25.1,19.6,25,36.1 µM,13.5,40.8 µM,16.1 µM,5.51,6.23,3720,8400,5.56,6.6,18.5 µM,3240,16 µM,4.03 µM
Cc1cc(C)n(-c2nnc3n2N=C(c2ccc(-c4ccccc4)cc2)CS3)n1,7.17,> 100,> 100,> 100,> 100,> 100,12.1 µM,5.55,> 100 µM,> 100 µM,2.58,3.83,3050,3920,5.14,4.99,3.11 µM,2310,3.79 µM,3.35 µM
Nc1ccc2nc3n(c2c1)C(=O)c1ccccc1-3,> 100,> 100,> 100,> 100,> 100,> 100,> 100 µM,> 100,> 100 µM,> 100 µM,,,,,,,,,,
C=C1CC[C@@H](C(C)C)C[C@@H]2[C@H]([C@H](O)C[C@]2(C)O)[C@@]2(C)CC[C@@H]1O2,50.6,32.7,18.7,23.3,26.9,31.3,26.5 µM,29.5,38 µM,29.9 µM,23.2,17,792,11200,13.9,16.2,11.8 µM,14800,20.2 µM,16.4 µM
O=C(OCc1ccc2c(Cl)cc(Cl)c(O)c2n1)N1CCN(C(=O)c2cc3cc(F)ccc3[nH]2)CC1,> 100,> 100,> 100,> 100,> 94.6,> 100,> 100 µM,3.7,> 100 µM,> 100 µM,3.23,7.03,905,1150,3.95,> 100,62.7 µM,501,3.6 µM,0.918 µM
OCC(O)CNc1ccnc2cc(Cl)ccc12 (stereo not given),> 100,> 100,> 100,> 100,> 100,> 100,> 100 µM,> 100,> 100 µM,> 100 µM,,,,,,,,,,
CCN(CC)c1cc2oc3cc(N)cc(=N)c-3nc2cc1C,4.69,18.3,6.78,6.13,81.2,34,15.6 µM,5.63,> 100 µM,17 µM,2.01,3.63,1650,1940,10,3.11,3.49 µM,1780,22.2 µM,3.41 µM
C=CCn1c2c(sc1=S)C(S)N=CN2 (stereo not given),> 100,> 100,> 100,> 100,> 100,> 100,> 100 µM,> 100,> 100 µM,> 100 µM,,,,,,,,,,
COC(=O)/C(=C\c1ccc(N(CCC#N)CCC#N)cc1)NC(=O)c1cc([N+](=O)[O-])ccc1Cl,> 100,> 100,> 100,> 100,> 100,> 100,> 100 µM,> 100,> 100 µM,> 100 µM,,,,,,,,,,
CCN(CC)CCNC(=O)c1ccc(C)c(OCc2ccccc2)c1[N+](=O)[O-],41,> 100,> 71.1,> 100,> 69.1,36.3,38.7 µM,> 75.8,> 75.9 µM,> 100 µM,,,,,,,,,,
